Molecules are shown by their SMILES.

The target of the assay is T1, recombinant human secreted phospholipase A2 (Homo sapiens, UniProt P14555).
T1 sequence (P14555 21-144): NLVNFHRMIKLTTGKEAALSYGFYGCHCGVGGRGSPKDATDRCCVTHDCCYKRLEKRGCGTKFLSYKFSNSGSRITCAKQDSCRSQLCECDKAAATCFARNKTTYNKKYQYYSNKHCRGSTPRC
Kind of assay: chromogenic assay for inhibitors of recombinant human secreted phospholipase A2. In kind it is biochemical. Particulars: diheptanoyl thio-PC substrate, pH 7.5, 40° C. for 30 minutes, absorbance at 405 nanometers, triplicate. An excerpt: The following chromogenic assay procedure was used to identify and evaluate inhibitors of recombinant human secreted phospholipase A2. The assay described herein has been adapted for high volume screening using 96 well microtiter plates. A general description of this assay method is found in the article, “Analysis of Human Synovial Fluid Phospholipase A2 on Short Chain Phosphatidylcholine-Mixed Micelles: Development of a Spectrophotometric Assay Suitable for a Microtiterplate Reader”, by Laure J. Reynolds, Lori L. Hughes, and Edward A Dennis, Analytical Biochemistry, 204, pp. 190-197, 1992 (the disclosure of which is incorporated herein by reference):
Adjust pH to 4.5 with acetic acid
DTNB—5,5′-dithiobis-2-nitrobenzoic acid
RACEMIC DIHEPTANOYL THIO—PC
racemic 1,2-bis(heptanoylthio)-1,2-dideoxy-sn-glycero-3-phosphorylcholine
TRITON X-100™ prepare at 6.249 mg/ml in reaction buffer to equal […].
A measured volume of racemic dipheptanoyl thio PC supplied in chloroform at a concentration of 100 mg/ml is taken to dryness and redissolved in 10 millimolar TRITON X-100™ nonionic detergent aqueous solution. Reaction Buffer is added to the solution, then DTNB to give the Reaction Mixture.
The reaction mixture thus obtained contains 1 mM diheptanoly thio-PC substrate, 0.29 mm Triton X-100™ detergent, and 0.12 mm DTMB in a buffered aqueous solution at pH 7.5.
1. Add 0.2 ml reaction mixture to all wells;
2. Add 10 ul test compound (or solvent blank) to appropriate wells, mix 20 seconds;
3. Add 50 nanograms of sPLA2 (10 microliters) to appropriate wells;
4. […]
5. Read absorbance of wells at 405 nanometers with an automatic plate reader.
Tests were done in triplicate. […] Compounds initially found to be active were re-assayed to confirm their activity and, if sufficiently active, IC50 values were determined. […] In all cases, % inhibition measured at 405 nanometers generated by enzyme reactions containing inhibitors relative to the uninhibited control reactions was determined. […] IC50 values were determined by plotting log concentration versus inhibition values in the range from 10-90% inhibition.
In the case of `CCc1sc2cccc(OCC(=O)N[C@@H](CC(C)C)C(=O)O)c2c1C(=O)C(N)=O` [Example 3, 2(S)-[2-[(3-aminooxalyl-2-ethylbenzo [b]thiophen-4-yl)oxy]acetylamino]-4-methylpentanoic acid], the IC50 turned out to be 10.6 µM. As to `CCc1sc2cccc(OCC(=O)N[C@@H](CC(C)C)C(=O)OC)c2c1C(=O)C(N)=O` [Example 2, 2(S)-[2-[(3-aminooxalyl-2-ethylbenzo [b]thiophen-4-yl)oxy]acetylamino]-4-methylpentanoic cid methylester], the IC50 was 64.8 µM.

Consider `CCc1sc2cccc(OCC(=O)O)c2c1C(=O)C(N)=O` [Example 1, (3-aminooxalyl-2-ethylbenzo[b]thiophen-4-yloxy)acetic acid], for which the IC50 is 1.41 µM.
